Test results taken from patent US4758577A, “4-(5H-dibenzo[a,d]cyclohepten-5-yl)piperidine compounds for treating cardiovascular disorders” (Merck & Co., Inc., priority 1984, dated 1988).

Test system: vascular smooth muscle
Assay: inhibition of calcium induced contraction of tracheal smooth muscle or vascular tissue (segments of vascular smooth muscle in a tissue bath, depolarized, 0.1 mM calcium chloride re-added)
Format: cell-based, male Sprague-Dawley rats
Details: Rattus norvegicus; 10^-7 M; second contraction vs initial contraction
Protocol: The property may be observed in a test in which segments of vascular smooth muscle obtained from male Sprague-Dawley rats are suspended in physiological salt solution in a tissue bath instrumented for recording contractions. After the tissue has been equilibrated, washed in calcium-free physiological salt solution and depolarized, 0.1 mM calcium chloride is re-added to induce contraction. After the contraction has reached a plateau, tissues are washed and a test compound or vehicle is added to determine the effect on a second contraction achieved by the above cyclic protocol. From measuring the initial contraction as well as the second contraction in the presence of the first compound, the extent of inhibition may be calculated.

SMILES	inhibition at 0.1 µM [%]
C(=Cc1ccccc1)CN1CCC(C2c3ccccc3C=Cc3ccccc32)CC1 [4-(5H-Dibenzo[a,d]cyclohepten-5-yl)-1-cinnamylpiperidine]	70
COc1cc(C=CCN2CCC(C3c4ccccc4C=Cc4ccccc43)CC2)cc(OC)c1OC [4-(5H-Dibenzo[a,d]cyclohepten-5-yl)-1-(3-(3,4,5-trimethoxyphenyl)prop-2-en-1-yl)piperidine]	68
CN(C)c1ccc(CN2CCC(C3c4ccccc4C=Cc4ccccc43)CC2)cc1 [4-(5H-Dibenzo[a,d]cyclohepten-5-yl)-1-(4-dimethylaminobenzyl)piperidine]	69
